Where a chain is given by its changes, count along the chain named. In names and notes the source's numbering stands.
Key:
[1] = biological target: AHAS protein comprising both the P197S and W574L mutation in one ALS protein (Arabidopsis thaliana, UniProt P17597, P197S/W574L); type: biochemical; settings: both mutations in one ALS protein; for Resistance Factor P197S-W574L (in one protein): relative to WT
Protocol: (§1) Bacteria are grown at 37° C. in LB-medium containing 100 mg/l carbenicillin and 25 mg/l canamycin, induced with 1 mM isopropyl-β-D-thiogalactopyranoside at an OD600 of 0.6, cultivated for 16 hours at 18° C. and harvested by, e.g., centrifugation. Bacterial pellets are resuspended in 100 mM sodium phosphate buffer pH 7.0 containing 0.1 mM thiamine-pyrophosphate, 1 mM MgCl2, and 1 μM FAD at a concentration of 1 gram wet weight per 25 ml of buffer and disrupted by, e.g., sonification. The crude protein extract obtained after centrifugation is used for ALS activity measurements.
(§2) ALS protein can be extracted from leaves or tissue cultures, such as B. napus or B. juncea leaves, or B. napus or B. juncea tissue cultures as described by Ray (Plant Physiol, 1984, 75:827-831). An ALS assays can be carried out in 96-well microtiter plates using a modification of the procedure described by Ray (1984): The reaction mixture contains 20 mM potassium phosphate buffer pH 7.0, 20 mM sodium pyruvate, 0.45 mM thiamine-pyrophosphate, 0.45 mM MgCl2, 9 μM FAD. ALS enzyme and various concentrations of ALS inhibitors can be mixed in a final volume of 90 μl. Assays can be initiated by adding enzyme and the assays can be terminated after 75 min incubation at 30° C. by the addition of 40 μl 0.5 M H2SO4.

[2] = biological target: mixture of two ALS proteins, one comprising the P197S and the other the W574L mutation (Arabidopsis thaliana, UniProt P17597, P197S/W574L); experiment: biochemical; settings: for Resistance Factor P197S & W574L (mixture): calculated mixture of two ALS proteins, relative to WT
Sequence of mixture of two ALS proteins, one comprising the P197S and the other the W574L mutation (P17597 56-670 P197S/W574L): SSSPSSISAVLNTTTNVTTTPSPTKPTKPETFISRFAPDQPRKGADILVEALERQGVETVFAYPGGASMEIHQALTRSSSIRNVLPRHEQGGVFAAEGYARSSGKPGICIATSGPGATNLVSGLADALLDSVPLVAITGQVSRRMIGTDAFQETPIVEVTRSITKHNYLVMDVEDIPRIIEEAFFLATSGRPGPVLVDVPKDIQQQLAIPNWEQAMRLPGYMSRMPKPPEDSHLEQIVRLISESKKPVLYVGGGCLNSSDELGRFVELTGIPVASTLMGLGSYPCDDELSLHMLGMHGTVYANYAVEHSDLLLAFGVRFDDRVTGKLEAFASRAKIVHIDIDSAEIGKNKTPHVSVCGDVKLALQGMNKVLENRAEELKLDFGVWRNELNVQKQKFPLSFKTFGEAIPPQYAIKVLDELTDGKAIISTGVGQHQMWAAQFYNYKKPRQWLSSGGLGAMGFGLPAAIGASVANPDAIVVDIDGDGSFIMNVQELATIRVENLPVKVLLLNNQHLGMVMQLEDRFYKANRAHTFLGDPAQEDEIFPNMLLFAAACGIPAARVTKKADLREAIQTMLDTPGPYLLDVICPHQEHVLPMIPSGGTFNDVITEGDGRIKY

[3] = biological target: AHAS protein comprising the P197S mutation (Arabidopsis thaliana, UniProt P17597, P197S); experiment: biochemical; settings: for Resistance Factor P197S: AHAS P197S relative to WT
Sequence of AHAS protein comprising the P197S mutation (P17597 56-670 P197S): as the sequence (P17597 56-670 P197S/W574L) above, with L519W counted along it
Protocol: as §1, §2

[4] = biological target: AHAS protein comprising the W574L mutation (Arabidopsis thaliana, UniProt P17597, W574L); experiment: biochemical; settings: for Resistance Factor W574L: AHAS W574L relative to WT
Sequence of AHAS protein comprising the W574L mutation (P17597 56-670 W574L): as the sequence (P17597 56-670 P197S/W574L) above, with S142P counted along it
Protocol: as §1, §2

[5] = biological target: AHAS protein WT (Arabidopsis thaliana, UniProt P17597); experiment: biochemical
Sequence of AHAS protein WT (P17597 56-670): as the sequence (P17597 56-670 P197S/W574L) above, with S142P, L519W counted along it
Protocol: as §1, §2

[6] = system: Brassica napus hypocotyl derived callus; experiment: Selection of hypocotyl derived callus on medium containing Foramsulfuron; type: cell-based
Protocol: Five day old seedlings were used for the preparation of hypocotyl segments 7-10 mm in length. Hypocotyl segments were transferred to 14 cm Petri plates containing 75 ml of M-338 [H76] callus induction medium (25 explants/plate). M-338 [H76] medium is MS salts and vitamins (Murashige and Skoog, 1962), 20 g/l sucrose, 0.5 g/l MES, 0.5 g/l adenine sulphate, 5 mg/l silver nitrate, 0.5 mg/l 2,4-D, 0.2 mg/l kinetin and solidified with 5.5 g/l agarose (pH 5.7). Dishes were sealed and cultured at 24° C. with standard light conditions (16 h/day). After 3 weeks, calli developing at the ends of the explants were transferred to fresh M-338 [H76] plates (25 calli/plate). Calli were subcultured to fresh medium every 3 weeks (larger calli cut into two pieces).
Hypocotyl derived callus (9 weeks old) was used for the selection of herbicide resistant mutants. Small pieces of callus were plated on M-338 [H76] medium containing 25 nM of the ALS inhibitor Foramsulfuron (CAS RN 173159-57-4). […] Dishes were cultured at 24° C. with standard light conditions (16 h/day). After 3 weeks, the calli were divided into 2 pieces each and replated on M-338 [H76] medium containing 50 nM Foramsulfuron. […]

[7] = system: wild-type (WT) oilseed rape; experiment: Field test of visible phytotoxicity upon herbicide spraying, wild-type; type: in vivo, Brassica napus; settings: g ai/ha: imazamox 40, bispyribac-sodium 50, propoxycarbazone-sodium 70, mesosulfuron-methyl 60, pyroxsulam 12.5 + cloquintocet-mexyl 37.5, each + rapeseed oil methylated 366.5, 0%=no phytotoxic effects, 100%=all plants killed
From the text: (§3) Seeds of spring oilseed rape homozygous for HETO132 and HETO134, and seeds of spring oilseed rape homozygous for HETO133 and HETO 134 were sown in a field according to typical practical agricultural methods. Several ALS inhibitor herbicides were applied to the oilseed rape plants by using specific spray equipment for small plot applications. […] The use of all herbicides in the test lead to a clearly better tolerance of the spring oilseed rape lines homozygous for HETO132 and HETO134 as compared to a standard variety not comprising ALS alleles according to the invention.

[8] = system: oilseed rape homozygous for HETO133 and HETO134; experiment: Field test of visible phytotoxicity upon herbicide spraying, HETO133-HETO134; type: in vivo, Brassica napus; settings: g ai/ha: imazamox 40, bispyribac-sodium 50, propoxycarbazone-sodium 70, mesosulfuron-methyl 60, pyroxsulam 12.5 + cloquintocet-mexyl 37.5, each + rapeseed oil methylated 366.5, 0%=no phytotoxic effects, 100%=all plants killed
From the text: as §3

[9] = system: oilseed rape homozygous for HETO132 and HETO134; experiment: Field test of visible phytotoxicity upon herbicide spraying, HETO132-HETO134; type: in vivo, Brassica napus; settings: g ai/ha: imazamox 40, bispyribac-sodium 50, propoxycarbazone-sodium 70, mesosulfuron-methyl 60, pyroxsulam 12.5 + cloquintocet-mexyl 37.5, each + rapeseed oil methylated 366.5, 0%=no phytotoxic effects, 100%=all plants killed
From the text: as §3

[10] = Kinetic parameters of enzymatic activity of AHAS proteins; type: biochemical; settings: enzymatic activity of the AHAS protein
Protocol: The ALS inhibitor sensitivity and kinetic parameters of AHAS proteins comprising the P197S mutation, the W574L mutation, and both the P197S and W574L mutation in one ALS protein, were determined essentially as described in WO 2013/127766. ALS inhibitor sensitivity of a mixture of two ALS proteins, one of which comprising the P197S and the other comprising the W574L mutations were calculated as described in WO 2013/127766.

Sequence of AHAS protein comprising both the P197S and W574L mutation in one ALS protein (P17597 56-670 P197S/W574L): as the sequence (P17597 56-670 P197S/W574L) above

## COc1cc(OC)nc(NC(=O)NS(=O)(=O)c2cc(NC=O)ccc2C(=O)N(C)C)n1 [Foramsulfuron, foramsulfuron]
[1]
  pI50 P197S-W574L (in one protein): <4
  Resistance Factor P197S-W574L (in one protein): >11748
[2]
  IC50: 2.51 µM
  Resistance Factor P197S & W574L (mixture): 398
[3]
  IC50: 100 nM
  Resistance Factor P197S: 12
[4]
  IC50: 50.1 µM
  Resistance Factor W574L: 5888
[5]
  IC50: 7.94 nM
[6]; 25 nM in M-338 [H76] medium, 9 weeks old hypocotyl derived callus
  effect on callus growth: partially inhibitory to callus growth but not lethal
[6]; 250 nM in M-338 [H76] medium
  effect on WT tissues: clearly inhibitory to WT tissues

## COCc1cnc(C2=NC(C)(C(C)C)C(=O)N2)c(C(=O)O)c1 (centres unmarked) [Imazamox, imazamox]
[1]
  pI50 P197S-W574L (in one protein): <4
  Resistance Factor P197S-W574L (in one protein): >22
[2]
  IC50: 79.4 µM
  Resistance Factor P197S & W574L (mixture): 20
[7]
  Percentage phytotoxicity 9 DAA wild-type: 73.3%
  Percentage phytotoxicity 16 DAA wild-type: 98%
  Percentage phytotoxicity 24 DAA wild-type: 99%
[8]
  Percentage phytotoxicity 9 DAA HETO133-HETO134: 6.7%
  Percentage phytotoxicity 16 DAA HETO133-HETO134: 10%
  Percentage phytotoxicity 24 DAA HETO133-HETO134: 0%
[3]
  IC50: 5010 nM
  Resistance Factor P197S: 1
[4]
  IC50: > 100 µM
  Resistance Factor W574L: >22
[5]
  IC50: 3980 nM
[9]
  Percentage phytotoxicity 9 DAA HETO132-HETO134: 6.7%
  Percentage phytotoxicity 16 DAA HETO132-HETO134: 8.7%
  Percentage phytotoxicity 24 DAA HETO132-HETO134: 0%

B1: P197S: AHAS protein comprising the P197S mutation (protein, listed as Arabidopsis thaliana)
chain: MAAATTTTTTSSSISFSTKPSPSSSKSPLPISRFSLPFSLNPNKSSSSSRRRGIKSSSPSSISAVLNTTTNVTTTPSPTKPTKPETFISRFAPDQPRKGADILVEALERQGVETVFAYPGGASMEIHQALTRSSSIRNVLPRHEQGGVFAAEGYARSSGKPGICIATSGPGATNLVSGLADALLDSVPLVAITGQVSRRMIGTDAFQETPIVEVTRSITKHNYLVMDVEDIPRIIEEAFFLATSGRPGPVLVDVPKDIQQQLAIPNWEQAMRLPGYMSRMPKPPEDSHLEQIVRLISESKKPVLYVGGGCLNSSDELGRFVELTGIPVASTLMGLGSYPCDDELSLHMLGMHGTVYANYAVEHSDLLLAFGVRFDDRVTGKLEAFASRAKIVHIDIDSAEIGKNKTPHVSVCGDVKLALQGMNKVLENRAEELKLDFGVWRNELNVQKQKFPLSFKTFGEAIPPQYAIKVLDELTDGKAIISTGVGQHQMWAAQFYNYKKPRQWLSSGGLGAMGFGLPAAIGASVANPDAIVVDIDGDGSFIMNVQELATIRVENLPVKVLLLNNQHLGMVMQWQDRFYKANRAHTFLGDPAQEDEIFPNMLLFAAACGIPAARVTKKADLREAIQTMLDTPGPYLLDVICPHQEHVLPMIPSGGTFNDVITEGDGRIKY
[10]
  Km: 5.5 mM
  Vmax: 50.0 deltaOD550/min mg protein

B2: W574L: AHAS protein comprising the W574L mutation (protein, listed as Arabidopsis thaliana)
chain: B1 chain with S197P, W574L
[10]
  Km: 7 mM
  Vmax: 54.4 deltaOD550/min mg protein

B3: P197S-W574L (in one protein): AHAS protein comprising both the P197S and W574L mutation in one ALS protein (protein, listed as Arabidopsis thaliana)
chain: B1 chain with W574L
[10]
  Km: 31.5 mM
  Vmax: 87.7 deltaOD550/min mg protein

Source: US20190136254A1, “ALS Inhibitor Herbicide Tolerant Mutant Plants” (BASF SE, priority 2013, published 2019)
